Assays:
[1] = test system: STEME; assay: Post-emergence action against STEME, 1.28 kg/ha; assay type: in vivo, Stellaria media; conditions: dosage 1280 g/ha, visual rating about 3 weeks after treatment vs untreated controls (100% = plants died)
In short: (§1)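 Greenhouse pot test, sandy loam; weeds sprayed post-emergence at one-leaf stage (2–3 weeks after sowing) with WP or EC formulation plus 0.5% additive, 600 l/ha water. Visual rating after about 3 weeks versus untreated controls, 100% = plants dead, 0% = like control.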

[2] = test system: LOLRI; assay: Post-emergence action against LOLRI, 1.28 kg/ha; assay type: in vivo, Lolium rigidum; conditions: dosage 1280 g/ha, visual rating about 3 weeks after treatment vs untreated controls
In short: as §1

[3] = test system: SETVI; assay: Pre-emergence action against SETVI, 1280 g/ha; assay type: in vivo, Setaria viridis; conditions: visual scoring after about 3 weeks vs untreated controls, 100% = plants have died, 0% = like control plants
In short: (§2)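 Greenhouse pre-emergence test on sown seeds in sandy loam; soil-surface spray of formulated compound with 0.5% additive at 600 L/ha water. Scored visually, % vs untreated, after about 3 weeks.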

[4] = test system: POLCO; assay: Post-emergence action at 320 g/ha against POLCO; assay type: in vivo, Fallopia convolvulus (Polygonum convolvulus); conditions: visual rating about 3 weeks after treatment vs untreated controls
Text: (§3) Accordingly, the compounds of the invention have good herbicidal action against a broad spectrum of weed grasses and broad-leaved weeds and are therefore suitable for controlling unwanted vegetation by the post-emergence method. • b) Seeds of monocotyledonous and dicotyledonous weeds and crop plants are placed in sandy loam in plastic or organic planting pots, covered with soil and cultivated in a greenhouse under controlled growth conditions. 2 to 3 weeks after sowing, the test plants are treated at the one-leaf stage. The compounds of the invention, formulated in the form of wettable powders (WP) or as emulsion concentrates (EC), are then sprayed onto the green parts of the plants as aqueous suspension or emulsion with addition of 0.5% additive at a water application rate of 600 l/ha (converted). After the test plants have been kept in the greenhouse under optimum growth conditions for about 3 weeks, the activity of the preparations is rated visually in comparison to untreated controls. For example, 100% activity=the plants have died, 0% activity=like control plants. Tables 39 to 49 below show the effects of selected compounds of the general formula (I) according to Tables 1 and 2 on various harmful plants and at an application rate corresponding to 320 g/ha, which were obtained by the experimental procedure mentioned above.

[5] = test system: POLCO; assay: Pre-emergence action at 320 g/ha against POLCO; assay type: in vivo, Fallopia convolvulus (Polygonum convolvulus); conditions: visual scoring after about 3 weeks vs untreated controls
In short: (§4)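 Weed seeds sown in pots and covered with soil; compounds formulated as WP or EC were sprayed onto the soil surface as aqueous suspension or emulsion with 0.5% additive at 600 l/ha water. Pots kept in greenhouse; activity scored visually after about 3 weeks versus untreated controls (100% = plants dead, 0% = like control).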

[6] = test system: VIOTR; assay: Pre-emergence action at 320 g/ha against VIOTR; assay type: in vivo, Viola tricolor; conditions: dosage 320 g/ha
In short: as §4

[7] = test system: AMARE; assay: Pre-emergence action against AMARE, 1280 g/ha; assay type: in vivo, Amaranthus retroflexus; conditions: scored visually after about 3 weeks vs untreated controls (100% = plants have died)
In short: as §2

[8] = test system: POAAN; assay: Pre-emergence action against POAAN, 1280 g/ha; assay type: in vivo, Poa annua; conditions: visual scoring after about 3 weeks vs untreated controls, 100% = plants have died, 0% = like control plants
In short: as §2

[9] = test system: ALOMY; assay: Post-emergence action against ALOMY, 320 g/ha; assay type: in vivo, Alopecurus myosuroides; conditions: dosage 320 g/ha, visual rating about 3 weeks after treatment vs untreated controls (100% = plants died)
In short: (§5)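 Activity is a visual rating against untreated controls, with 0% like control and 100% dead plants, made about 3 weeks after treatment. Plants grown in sandy loam in the greenhouse received a post-emergence spray at the one-leaf stage of 320 g/ha, formulated as WP or EC with 0.5% additive in 600 l/ha water.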

[10] = test system: MATIN; assay: Pre-emergence action against MATIN, 1280 g/ha; assay type: in vivo, Tripleurospermum inodorum (Matricaria inodora); conditions: scored visually after about 3 weeks vs untreated controls (100% = plants have died)
In short: as §2

[11] = test system: STEME; assay: Pre-emergence action against STEME, 1280 g/ha; assay type: in vivo, Stellaria media; conditions: scored visually after about 3 weeks vs untreated controls (100% = plants have died)
In short: as §2

[12] = test system: DIGSA; assay: Pre-emergence action against DIGSA, 1280 g/ha; assay type: in vivo, Digitaria sanguinalis; conditions: visual scoring after about 3 weeks vs untreated controls, 100% = plants have died, 0% = like control plants
In short: as §2

[13] = test system: MATIN; assay: Post-emergence action against MATIN, 1.28 kg/ha; assay type: in vivo, Tripleurospermum inodorum (Matricaria inodora); conditions: dosage 1280 g/ha, visual rating about 3 weeks after treatment vs untreated controls (100% = plants died)
In short: as §1

[14] = test system: ECHCG; assay: Pre-emergence action against ECHCG, 1280 g/ha; assay type: in vivo, Echinochloa crus-galli; conditions: visual scoring after about 3 weeks vs untreated controls, 100% = plants have died, 0% = like control plants
In short: as §2

[15] = test system: ABUTH; assay: Post-emergence action against ABUTH, 1.28 kg/ha; assay type: in vivo, Abutilon theophrasti; conditions: dosage 1280 g/ha, visual rating about 3 weeks after treatment vs untreated controls (100% = plants died)
In short: as §1

[16] = test system: DIGSA; assay: Post-emergence action against DIGSA, 1.28 kg/ha; assay type: in vivo, Digitaria sanguinalis; conditions: dosage 1280 g/ha, visual rating about 3 weeks after treatment vs untreated controls
In short: as §1

[17] = test system: SETVI; assay: Post-emergence action at 320 g/ha against SETVI; assay type: in vivo, Setaria viridis; conditions: visual rating about 3 weeks after treatment vs untreated controls
In short: as §5

[18] = test system: POAAN; assay: Post-emergence action against POAAN, 1.28 kg/ha; assay type: in vivo, Poa annua; conditions: dosage 1280 g/ha, visual rating about 3 weeks after treatment vs untreated controls
In short: as §1

[19] = test system: LOLRI; assay: Pre-emergence action against LOLRI, 1280 g/ha; assay type: in vivo, Lolium rigidum; conditions: visual scoring after about 3 weeks vs untreated controls, 100% = plants have died, 0% = like control plants
In short: as §2

[20] = test system: DIGSA; assay: Pre-emergence action at 320 g/ha against DIGSA; assay type: in vivo, Digitaria sanguinalis; conditions: visual scoring after about 3 weeks vs untreated controls
In short: as §4

[21] = test system: AMARE; assay: Pre-emergence action at 320 g/ha against AMARE; assay type: in vivo, Amaranthus retroflexus; conditions: visual scoring after about 3 weeks vs untreated controls
In short: as §4

[22] = test system: AMARE; assay: Post-emergence action against AMARE, 1.28 kg/ha; assay type: in vivo, Amaranthus retroflexus; conditions: dosage 1280 g/ha, visual rating about 3 weeks after treatment vs untreated controls (100% = plants died)
In short: as §1

[23] = test system: VIOTR; assay: Post-emergence action at 320 g/ha against VIOTR; assay type: in vivo, Viola tricolor; conditions: visual rating about 3 weeks after treatment vs untreated controls
Text: as §3

[24] = test system: SETVI; assay: Pre-emergence action at 320 g/ha against SETVI; assay type: in vivo, Setaria viridis; conditions: visual scoring after about 3 weeks vs untreated controls
In short: as §4

[25] = test system: HORMU; assay: Post-emergence action at 320 g/ha against HORMU; assay type: in vivo, Hordeum murinum; conditions: visual rating about 3 weeks after treatment vs untreated controls
Text: as §3

[26] = test system: VERPE; assay: Post-emergence action against VERPE, 1.28 kg/ha; assay type: in vivo, Veronica persica; conditions: dosage 1280 g/ha, visual rating about 3 weeks after treatment vs untreated controls (100% = plants died)
In short: as §1

[27] = test system: VERPE; assay: Pre-emergence action against VERPE, 1280 g/ha; assay type: in vivo, Veronica persica; conditions: scored visually after about 3 weeks vs untreated controls (100% = plants have died)
In short: as §2

[28] = test system: AVEFA; assay: Post-emergence action at 320 g/ha against AVEFA; assay type: in vivo; conditions: visual rating about 3 weeks after treatment vs untreated controls
In short: as §5

[29] = test system: SETVI; assay: Post-emergence action against SETVI, 1.28 kg/ha; assay type: in vivo, Setaria viridis; conditions: dosage 1280 g/ha, visual rating about 3 weeks after treatment vs untreated controls
In short: as §1

[30] = test system: STEME; assay: Pre-emergence action at 320 g/ha against STEME; assay type: in vivo, Stellaria media; conditions: greenhouse, scored visually after about 3 weeks vs untreated controls, 100% = plants have died, 0% = like control plants
Text: b) Seeds of monocotyledonous and dicotyledonous weed plants and crop plants are placed in plastic or organic planting pots and covered with soil. The compounds of the invention, formulated in the form of wettable powders (WP) or as emulsion concentrates (EC), are then applied onto the surface of the covering soil as aqueous suspension or emulsion with addition of 0.5% additive at a water application rate of 600 l/ha (converted). After the treatment, the pots are placed in a greenhouse and kept under good growth conditions for the trial plants. After about 3 weeks, the effect of the preparations is scored visually in comparison with untreated controls as percentages. For example, 100% activity=the plants have died, 0% activity=like control plants. Tables 13 to 26 below show the effects of selected compounds of the general formula (I) on various harmful plants and at an application rate corresponding to 320 g/ha, which were obtained by the experimental procedure mentioned above.

COC(=O)C(C)Oc1nn(-c2ccccc2)c(-c2ccnc(Cl)c2)c1Cl (stereo not drawn) [VIII-001]
80%: Post-emergence action against SETVI in % [17] | Post-emergence action against VIOTR in % [23] | Post-emergence action against HORMU in % [25] | Post-emergence action against AVEFA in % [28]
100%: Post-emergence action against STEME [1] | Pre-emergence action against SETVI [3] | Pre-emergence action against POAAN [8] | Pre-emergence action against ECHCG [14] | Post-emergence action against POAAN [18] | Pre-emergence action against LOLRI [19] | Pre-emergence action against DIGSA in % [20] | Pre-emergence action against SETVI in % [24] | Post-emergence action against VERPE [26] | Pre-emergence action against VERPE [27]
90%: Post-emergence action against LOLRI [2] | Post-emergence action against POLCO in % [4] | Pre-emergence action against POLCO in % [5] | Pre-emergence action against VIOTR in % [6] | Pre-emergence action against AMARE [7] | Post-emergence action against ALOMY [9] | Pre-emergence action against MATIN [10] | Pre-emergence action against STEME [11] | Pre-emergence action against DIGSA [12] | Post-emergence action against MATIN [13] | Post-emergence action against ABUTH [15] | Post-emergence action against DIGSA [16] | Pre-emergence action against AMARE in % [21] | Post-emergence action against AMARE [22] | Post-emergence action against SETVI [29] | Pre-emergence action at 320 g/ha against STEME in % [30]

Source: patent publication US12180187B2, “1-phenyl-5-azinylpyrazolyl-3-oxyalkyl acids and their use for controlling unwanted plant growth” (BAYER AKTIENGESELLSCHAFT, priority 2019, dated 2024)
